Among the data in patent publication US20040067531A1, “Methods of modulating protein tyrosine kinase function with substituted indolinone compounds” (SUGEN, INC., priority 1997, published 2004) are IC50 values, retold here.

The target in one assay is T1, FLK-1 receptor (Mus musculus, UniProt P35918).
T1 construct: expressed in transfected cells; host or cells: NIH3T3 C7#3
As to the kind of experiment: ELISA assay measuring the kinase activity of the FLK-1 receptor in cells engineered to express FLK-1. Type of assay: cell-based. The settings on record: NIH3T3 C7#3 FLK-1 expressing cells, VEGF stimulation, phosphotyrosine ELISA. The method, then:
An ELISA assay was conducted to measure the kinase activity of the FLK-1 receptor and more specifically, the inhibition or activation of TK activity on the FLK-1 receptor. Specifically, the following assay was conducted to measure kinase activity of the FLK-1 receptor in cells genetically engineered to express FLK-1.
(11) NIH3T3 C7#3 Cells (FLK-1 expressing cells);
The following protocol was used for conducting the assay:
1. Coat Corning 96-well elisa plates with 1.0 μg per well Cappel Anti-rabbit IgG antibody in 0.1 M Na2CO3 pH 9.6. Bring final volume to 150 μL per well. Coat plates overnight at 4° C. Plates can be kept up to two weeks when stored at 4° C.
2. Grow cells in Growth media (DMEM, supplemental with 2.0 mM L-Glutamine, 10% FBS) in suitable culture dishes until confluent at 37° C., 5% CO2.
3. Harvest cells by trypsinization and seed in Corning 25850 polystyrene 96-well roundbottom cell plates, 25.000 cells/well in 200 μL of growth media.
4. Grow cells at least one day at 37° C., 5% CO2.
5. Wash cells-with D-PBS 1×.
6. Add 200 μL/well of starvation media (DMEM, 2.0 mM 1-Glutamine, 0.1% FBS). Incubate overnight at 37° C., 5% CO2.
7. Dilute Compounds 1:20 in polypropylene 96 well plates using starvation media. Dilute dimethylsulfoxide 1:20 for use in control wells.
8. Remove starvation media from 96 well cell culture plates and add 162 μL of fresh starvation media to each well.
9. Add 18 μL of 1:20 diluted Compound dilution (from step 7) to each well plus the 1:20 dimethylsulfoxide dilution to the control wells (+/− VEGF), for a final dilution of 1:200 after cell stimulation. Final dimethylsulfoxide is 0.5%. Incubate the plate at 37° C., 5% CO2 for two hours.
10. Remove unbound antibody from ELISA plates by inverting plate to remove liquid. Wash 3 times with TBSW+0.5% ethanolamine, pH 7.0. Pat the plate on a paper towel to remove excess liquid and bubbles.
11. Block plates with TBSW+0.5% Ethanolamine, pH 7.0, 150 μL per well. Incubate plate thirty minutes while shaking on a microliter plate shaker.
12. Wash plate 3 times as described in step 10.
13. […] Bring final volume to 150 μL/well with TBSW+0.5% ethanolamine pH 7.0. Incubate plate for thirty minutes while shaking.
14. Add 180 μL starvation medium to the cells and stimulate cells with 20 μL/well 10.0 mM sodium ortho vanadate and 500 ng/mL VEGF (resulting in a final concentration of 1.0 mM sodium ortho vanadate and 50 ng/mL VEGF per well) for eight minutes at 37° C., 5% CO2. Negative control wells receive only starvation medium.
15. After eight minutes, media should be removed from the cells and washed one time with 200 μL/well PBS.
16. Lyse cells in 150 μL/well HNTG while shaking at room temperature for five minutes. HNTG formulation includes sodium ortho vanadate, sodium pyro phosphate and EDTA.
17. Wash ELISA plate three times as described in step 10.
18. Transfer cell lysates from the cell plate to ELISA plate and incubate while shaking for two hours. To transfer cell lysate pipette up and down while scrapping the wells.
19. Wash plate three times as described in step 10.
20. Incubate ELISA plate with 0.02 μg/well UB40 in TBSW+05% ethanolamine. Bring final volume to 150 μL/well. Incubate while shaking for 30 minutes.
21. Wash plate three times as described in step 10.
22. Incubate ELISA plate with 1:10,000 diluted EIA grade goat anti-mouse IgG conjugated horseradish peroxidase in TBSW+0.5% ethanolamine, pH 7.0. Bring final volume to 150 μL/well. Incubate while shaking for thirty minutes.
23. Wash plate as described in step 10.
24. Add 100 μL of ABTS/H2O2 solution to well. Incubate ten minutes while shaking.
25. Add 100 μL of 0.2 M HCl for 0.1 M HCl final to stop the color development reaction. Shake 1 minute at room temperature. Remove bubbles with slow stream of air and read the ELISA plate in an ELISA plate reader at 410 nm.
(§1) The IC50 values were measured for several of the compounds of the invention.
(An ELISA detects its analyte on a solid surface through an enzyme-linked reagent.)

Assay [1] concerns EGF-induced BrdU incorporation. As to the kind of experiment: EGF-induced BrdU incorporation assay. It is filed as cell-based. The settings on record: read-out: EGF-Induced BrdU Incorp. IC50. Here is the method: (§2) PDGF-, FGF-, and EGF-Induced BRDU Incorporation Assay
(§3) 1. Cells were seeded at 8000 cells/well in DMEM, 10% CS, 2 mM Gln in a 96 well plate. Cells were incubated overnight at 37° C. in 5% CO2.
(§4) 2. After 24 hours, the cells were washed with PBS, and then were serum starved in serum free medium (0% CS DMEM with 0.1% BSA) for 24 hours.
(§5) 3. On day 3, ligand (PDGF=3.8 nM, prepared in DMEM with 0.1% BSA) and test compounds were added to the cells simultaneously. The negative control wells received serum free DMEM with 0.1% BSA only; the positive control cells received the ligand (PDGF) but no test compound. Test compounds were prepared in serum free DMEM with ligand in a 96 well plate, and serially diluted for 7 test concentrations.
(§6) 4. After 20 hours of ligand activation, diluted BrdU labeling reagent (1:100 in DMEM, 0.1% BSA) was added and the cells were incubated with BrdU (final concentration=10 μM) for 1.5 hours.
(§7) 5. After incubation with labeling reagent, the medium was removed by decanting and tapping the inverted plate on a paper towel. FixDenat solution was added (50 μL/well) and the plates were incubated at room temperature for 45 minutes on a plate shaker.
(§8) 6. The FixDenat solution was thoroughly removed by decanting and tapping the inverted plate on a paper towel. Milk was added (5% dehydrated milk in PBS, 200 μL/well) as a blocking solution and the plate was incubated for 30 minutes at room temperature on a plate shaker.
(§9) 7. The blocking solution was removed by decanting and the wells were washed once with PBS. Anti-BrdU-POD solution (1:100 dilution in PBS, 1% BSA) was added (100 μL/well), and the plate was incubated for 90 minutes at room temperature on a plate shaker.
(§10) 8. The antibody conjugate was thoroughly removed by decanting and rinsing the wells 5 times with PBS, and the space was dried by inverting and tapping on a paper towel.
(§11) 9. TMB substrate solution was added (100 μL/well) and incubated for 20 minutes at room temperature on a plate shaker until color development was sufficient for photometric detection.
(§12) 10. The absorbance of the samples were measured at 410 nm (in “dual wavelength” mode with a filter reading at 490 nm, as a reference wavelength) on a Dynatech ELISA plate reader.
(§13) The IC50 values were measured for several of the compounds of the invention. These values are depicted in Table 10.
In general terms: Uptake of a labelled nucleoside into DNA is a usual measure of proliferation.

Assay [2] concerns 3T3 cell line genetically engineered to express human PDGF-R. The experiment in a line: PDGF-induced BrdU incorporation assay. The settings on record: NIH3T3; 3T3 cells expressing human PDGF-R, PDGF 3.8 nM; read-out: PDGF-Induced BrdU Incorp. IC50. It is filed as cell-based. The method, then:
(1) PDGF: human PDGF B/B; 1276-956, Boehringer Mannheim, Germany
(8) 3T3 cell line genetically engineered to express human PDGF-R.
as §3, §4, §5, §6, §7, §8, §9, §10, §11, §12, §13

In assay [3] the test system is FGF-induced BrdU incorporation. As to the kind of experiment: FGF-induced BrdU incorporation assay. The settings on record: read-out: FGF-Induced BrdU Incorp. IC50. Type of assay: cell-based. Here is the method:
as §2, §3, §4, §5, §6, §7, §8, §9, §10, §11, §12, §13

The next assay deals with T2, EGFR protein (Homo sapiens, UniProt P00533).
T2 construct: A431 cell lysate; endogenous in cells; host or cells: A431
T2 sequence (P00533 25-1210): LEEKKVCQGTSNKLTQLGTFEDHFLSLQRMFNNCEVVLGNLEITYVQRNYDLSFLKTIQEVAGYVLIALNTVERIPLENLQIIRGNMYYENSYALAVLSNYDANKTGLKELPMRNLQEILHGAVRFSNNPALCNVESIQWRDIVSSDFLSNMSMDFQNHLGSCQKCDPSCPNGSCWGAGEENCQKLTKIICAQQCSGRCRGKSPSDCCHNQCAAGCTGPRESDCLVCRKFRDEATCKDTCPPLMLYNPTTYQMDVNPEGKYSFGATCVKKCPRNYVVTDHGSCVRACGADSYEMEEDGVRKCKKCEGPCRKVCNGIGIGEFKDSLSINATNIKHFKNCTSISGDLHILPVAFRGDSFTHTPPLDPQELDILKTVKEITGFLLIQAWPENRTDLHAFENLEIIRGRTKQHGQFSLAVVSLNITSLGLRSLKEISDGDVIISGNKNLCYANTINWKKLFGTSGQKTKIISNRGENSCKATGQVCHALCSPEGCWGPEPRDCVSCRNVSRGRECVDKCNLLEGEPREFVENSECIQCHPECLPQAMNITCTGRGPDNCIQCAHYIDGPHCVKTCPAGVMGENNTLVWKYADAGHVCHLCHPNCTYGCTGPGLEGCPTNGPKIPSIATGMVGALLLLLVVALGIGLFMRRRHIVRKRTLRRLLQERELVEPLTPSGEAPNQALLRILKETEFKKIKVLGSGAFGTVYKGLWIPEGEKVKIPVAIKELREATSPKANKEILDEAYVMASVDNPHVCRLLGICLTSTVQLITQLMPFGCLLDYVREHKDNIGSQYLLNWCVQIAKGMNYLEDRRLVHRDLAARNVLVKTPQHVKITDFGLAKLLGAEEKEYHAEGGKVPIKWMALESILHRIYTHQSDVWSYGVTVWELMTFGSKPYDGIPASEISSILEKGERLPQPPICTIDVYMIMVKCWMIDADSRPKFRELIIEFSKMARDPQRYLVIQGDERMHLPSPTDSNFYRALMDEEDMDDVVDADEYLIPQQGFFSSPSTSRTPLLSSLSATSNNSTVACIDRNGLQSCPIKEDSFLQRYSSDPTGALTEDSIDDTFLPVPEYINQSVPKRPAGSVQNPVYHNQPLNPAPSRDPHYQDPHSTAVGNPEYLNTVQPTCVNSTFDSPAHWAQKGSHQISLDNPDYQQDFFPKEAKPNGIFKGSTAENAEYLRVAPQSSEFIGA
As to the kind of experiment: ELISA assay measuring the kinase activity of the EGF receptor (EGFR captured from A431 cell lysate). It is filed as biochemical. Here is the method: The following protocol describes the reagents and procedures used to analyze protein tyrosine kinase activity on the EGFR protein.
All of the following steps are conducted at room temperature unless it is specifically indicated. All ELISA plate washing is by rinsing 4× with TBST.
1. Coat Corning 96 well ELISA plates with 0.5 μg/well of SUMO1 in a volume of 100 μL PBS. Store overnight at 4° C.
2. Remove unbound SUMO1 by inverting plate to remove liquid. Wash plates with distilled water. Pat plate on a paper towel to remove excess liquid and bubbles
3. Add 150 μL of Blocking Buffer to each well. Incubate while shaking on a microliter plate shaker at room temperature for 30 min.
4. Wash 3× with deionized water, then once with TBST. Pat plate on a paper towel to remove excess liquid and bubbles.
5. Dilute lysate in PBS (7 μg of lysate/100 μL of PBS).
6. Add 100 μL of diluted lysate to each well. Shake at room temperature for 60 min.
7. Wash as described in step 4.
8. Add 120 μL TBS to ELISA plate containing captured EGFR.
9. Dilute drugs/extracts 1:10 (unless specified otherwise) in TBS in 96-well polypropylene plates.
10. Add 13.5 μL diluted drugs/extracts to ELISA plate.
11. Incubate for 30 minutes while shaking at room temperture.
12. […] Incubate while shaking on a micro-liter plate shaker at room temperature for 5 min.
13. Stop Kinase reaction with the addition of 16.5 μL of 200 mM EDTA pH 8.0 to all wells.
14. Wash 4× with deionized water and twice with TBST.
15. Add 100 μL per well of anti-phosphotyrosine (1:3000 dilution in TBST). Incubate while shaking on a micro-liter plate shaker 30-45 minutes at room temperature while shaking.
16. Wash as described in step 4.
17. Add 100 μL per well of biosource Goat anti-rabbit IgG peroxidase conjugate (1:2000 dilution in TBST). Incubate 30 min. at room temerature while shaking.
18. Wash as described in step 4.
19. Add 100 μL of ABTS/H2O2 solution to each well.
20. Incubate 5 to 15 minutes while shaking. Remove any bubbles.
21. If necessary stop reaction with the addition of 10 μL of 0.2 M HCl/well.
22. Read assay on Dynatech MR7000 ELISA Plate Reader.
as §1

The target of assay [4] is Myc-GyrB-FGFR fusion protein (Homo sapiens, UniProt P11362). As to the kind of experiment: ELISA assay measuring the kinase activity of the FGF receptor (Myc-GyrB-FGFR from COS/FGFR cell lysate). Type of assay: biochemical. The note with it: 7 μM ATP.
Sequence of Myc-GyrB-FGFR fusion protein (P11362 398-822): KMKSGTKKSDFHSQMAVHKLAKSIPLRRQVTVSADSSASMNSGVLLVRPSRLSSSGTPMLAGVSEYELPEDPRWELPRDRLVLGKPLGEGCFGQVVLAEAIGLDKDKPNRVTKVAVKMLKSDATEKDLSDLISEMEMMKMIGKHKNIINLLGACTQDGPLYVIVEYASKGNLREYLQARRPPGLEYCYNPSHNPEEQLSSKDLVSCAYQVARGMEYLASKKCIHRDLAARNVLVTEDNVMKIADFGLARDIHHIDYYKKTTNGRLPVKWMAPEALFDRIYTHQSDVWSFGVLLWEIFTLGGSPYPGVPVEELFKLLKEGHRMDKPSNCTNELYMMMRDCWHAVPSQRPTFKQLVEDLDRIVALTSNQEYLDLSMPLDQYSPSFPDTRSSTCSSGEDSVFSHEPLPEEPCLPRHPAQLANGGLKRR
Method: The following protocol describes the reagents and procedures used to analyze protein-tyrosine kinase activity of the Myc-GyrB-FGFR fusion protein.
Coat Corning 96 well ELISA plates with 1.0 μg/well of Rabbit αGyrB antibody in PBS for a total well volume of 100 μL. Store overnight at 4° C.
Remove unbound Rabbit antibody by inverting plate to remove liquid. Pat plate on a paper towel to remove excess liquid and bubbles
Add 100 μL of Blocking Buffer (TBB) to each well. Incubate while shaking on a microliter plate shaker at room temperature for 30 min.
Wash 4× with TBST. Pat plate on a paper towel to remove excess liquid and bubbles.
Add 15 μg COS/FGFR cell lysate Myc-GyrB-FGFR sources per well in HNTG for a final volume of 100 μL per well. Incubate while shaking on a micro-liter plate shaker at room temperature for 2 hours.
Wash 4× with TBST as described in step 4.
Add 80 μL of 1× kinase buffer per well.
Dilute compunds/extracts 1:10 (or as stated otherwise) in 1× kinase buffer +1% DMSO in a polypropylene 96 well plate.
At this point diluted Compounds/Extracts are added to the ELISA plate. […]

T1 sequence (P35918 20-1345): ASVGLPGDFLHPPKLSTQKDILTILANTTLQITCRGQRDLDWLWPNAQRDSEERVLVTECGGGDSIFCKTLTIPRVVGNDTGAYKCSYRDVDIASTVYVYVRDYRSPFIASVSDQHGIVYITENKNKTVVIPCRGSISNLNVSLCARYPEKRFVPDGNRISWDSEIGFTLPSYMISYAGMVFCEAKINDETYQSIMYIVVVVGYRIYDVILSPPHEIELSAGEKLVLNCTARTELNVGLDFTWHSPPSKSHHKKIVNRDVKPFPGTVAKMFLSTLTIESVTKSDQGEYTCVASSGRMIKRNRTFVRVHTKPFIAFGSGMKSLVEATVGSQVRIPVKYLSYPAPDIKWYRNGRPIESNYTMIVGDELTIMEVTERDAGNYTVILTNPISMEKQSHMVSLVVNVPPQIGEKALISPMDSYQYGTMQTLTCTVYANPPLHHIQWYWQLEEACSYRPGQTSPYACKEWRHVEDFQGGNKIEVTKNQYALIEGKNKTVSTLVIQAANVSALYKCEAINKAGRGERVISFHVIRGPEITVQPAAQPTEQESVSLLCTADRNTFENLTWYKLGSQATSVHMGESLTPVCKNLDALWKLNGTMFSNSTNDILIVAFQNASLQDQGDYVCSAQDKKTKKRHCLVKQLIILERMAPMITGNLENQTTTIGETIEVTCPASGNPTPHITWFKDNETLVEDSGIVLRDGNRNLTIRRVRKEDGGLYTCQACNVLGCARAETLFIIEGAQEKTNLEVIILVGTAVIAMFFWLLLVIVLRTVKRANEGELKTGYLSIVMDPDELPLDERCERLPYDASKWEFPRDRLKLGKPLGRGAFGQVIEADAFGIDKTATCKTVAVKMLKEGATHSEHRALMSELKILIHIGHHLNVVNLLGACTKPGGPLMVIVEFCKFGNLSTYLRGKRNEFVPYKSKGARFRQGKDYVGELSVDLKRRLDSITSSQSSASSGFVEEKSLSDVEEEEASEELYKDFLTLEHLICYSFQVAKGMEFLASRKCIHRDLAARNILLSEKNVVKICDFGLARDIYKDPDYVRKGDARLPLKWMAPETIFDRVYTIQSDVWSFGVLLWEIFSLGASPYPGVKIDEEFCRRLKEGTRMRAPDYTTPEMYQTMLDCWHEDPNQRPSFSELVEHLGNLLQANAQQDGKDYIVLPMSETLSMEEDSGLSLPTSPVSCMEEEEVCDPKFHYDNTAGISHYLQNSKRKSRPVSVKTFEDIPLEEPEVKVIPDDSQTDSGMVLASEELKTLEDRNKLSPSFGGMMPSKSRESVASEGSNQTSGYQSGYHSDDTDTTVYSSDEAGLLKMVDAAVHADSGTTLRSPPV

Regarding `COc1cccc(-c2ccc3c(c2)NC(=O)C3=Cc2[nH]c3c(c2CCC(=O)O)CCCC3)c1` [IN-015, 3-{2-[6-(3-Methoxy-phenyl)-2-oxo-1,2-dihydro-indol-3-ylidenemethyl]-4,5,6,7-tetrahydro-1H-indol-3-yl}-propionic acid], the IC50 (commonly the point on the concentration scale where inhibition reaches its midpoint) on FLK-1 receptor is under 0.78 µM.

`O=C(O)CCc1c(C=C2C(=O)Nc3cc(-c4ccccc4)ccc32)[nH]c2c1CCCC2` [IN-017, 3-[2-(2-Oxo-6-phenyl-1,2-dihydro-indol-3-ylidenemethyl)-4,5,6,7-tetrahydro-1H-indol-3-yl]-propionic acid] had an IC50 against FLK-1 receptor of under 0.78 µM.

For `O=C(O)CCc1c(/C=C2\C(=O)Nc3ncccc32)[nH]c2c1CCCC2` [IN-014, 3-[2-(2-Oxo-1,2-dihydro-pyrrolo[2,3-b]pyridin-3-ylidenemethyl)-4,5,6,7-tetrahydro-1H-indol-3-yl]-propionic acid], half-maximal inhibition at FLK-1 receptor (IC50) required 0.14 µM.

For the compound `Cc1ccc2c(c1)C(=Cc1[nH]cc(C)c1CCC(=O)O)C(=O)N2` [IN-032, 3-[2-(5-Methyl-2-oxo-1,2-dihydro-indol-3-ylidenemethyl)-4-methyl-1H-pyrrol-3-yl]-propionic acid], the IC50 was over 50 µM in assay [1], 11 µM in assay [2] and 30 µM in assay [3].

For `COc1ccc2c(c1)C(=Cc1[nH]cc(C)c1CCC(=O)O)C(=O)N2` [IN-033, 3-[2-(5-Methoxy-2-oxo-1,2-dihydro-indol-3-ylidenemethyl)-4-methyl-1H-pyrrol-3-yl]-propionic acid], the IC50 in assay [1] is over 50 µM; against EGFR protein it was over 100 µM; in assay [2] it was over 50 µM; in assay [3] it was 35 µM.

On FLK-1 receptor, `CC(C)NS(=O)(=O)c1ccc2c(c1)C(=Cc1[nH]c3c(c1CCC(=O)O)CCCC3)C(=O)N2` [IN-019, 3-[2-(5-Isopropylaminosulfonyl-2-oxo-1,2-dihydro-indol-3-ylidenemethyl)-4,5,6 7-tetrahydro-1H-indol-3-yl]-propionic acid] yielded an IC50 of under 0.78 µM.

`O=C(O)CCc1ccccc1/C=C1/C(=O)Nc2ccccc21` [IN-025, 3-[2-(2-Oxo-1,2-dihydro-indol-3-ylidenemethyl)-phenyl]-propionic acid] displayed an IC50 in assay [4] of 30.2 µM.

In turn, `COc1ccccc1-c1ccc2c(c1)NC(=O)C2=Cc1[nH]c2c(c1CCC(=O)O)CCCC2` [IN-018, 3-{2-[6-(2-Methoxy-phenyl)-2-oxo-1,2-dihydro-indol-3-ylidenemethyl]-4,5,6,7-tetrahydro-1H-indol-3-yl}-propionic acid] displayed an IC50 at FLK-1 receptor of 2.7 µM.

As to `O=C(O)CCc1c(C=C2C(=O)Nc3cc(Cl)ccc32)[nH]c2c1CCCC2` [IN-006, 3-[2-(6-Chloro-2-oxo-1,2-dihydro-indol-3-ylidenemethyl)-4,5,6,7-tetrahydro-1H-indol-3-yl]-propionic acid], the IC50 in assay [1] stood at 63.6 µM; in assay [2], 3.7 µM; in assay [3], 30.2 µM; at FLK-1 receptor, 0.031 µM.
